{"source": "patent US20240156726A1", "about": "“MULTI-LAYER ORAL THIN FILM” (LTS LOHMANN THERAPIE-SYSTEME AG, priority 2021, published 2024)", "origin": "cited, not measured here", "conditions": "compared with (R)-ketamine"}
{"smiles": "CNC1(c2ccccc2Cl)CCCCC1=O", "note": "(racemic) [(S)-ketamine, (S)-(±)-2-(2-chlorophenyl)-2-(methylamino)cyclohexan-1-one]", "values": [{"measurement": "analgesic and anaesthetic potency relative to the (R) form", "value": "approximately three times higher"}]}
